Source: US6623933B1 (priority 1999, dated 2003)
Where “and” joins values, the source holds several entries; their conditions need not be identical. Equal values may be shown once. Where a name gives a salt, the structure may show the parent alone.

What was measured:
NR1000/NR2A = NR1000/NR2A (Rattus norvegicus, UniProt P35439+Q00959); assay: NMDA-induced currents of NR1 splice variants, Xenopus oocytes, Example 4; type: cell-based; parameters: expressed in transfected cells; host or cells: Xenopus oocytes injected with NR1000 and NR2A mRNA; settings: NR1000/2A; 100 μM PS; 200 μM NMDA+10 μM glycine
Experimental: (§1) Overnight cultures (500 ml) of transformed bacterial cells were prepared in order to grow sufficient quantities for maxiprep isolation of the plasmid CDNA. Maxipreps were done using a Sorvall RC-5B ultracentrifuge, Qiagen columns and cDNA was quantitated with spectrophotometry (OD260 and OD260/ OD280 ratio). The resulting plasmid cDNA was linearized by digestion with an appropriate restriction enzyme that cleaves distal to the cDNA insert (XhoI for NR2A or NotI for NR1100, NR1000, NR1111, NR1011, NR1101, NR1001). […] The samples were stored at −20° C. until use.
(§2) In vitro transcription was performed using the Ambion mMessage mMachine kit with T7 (NR1100, NR1000, NR1111, NR1011, NR1101, NR1001) RNA polymerase. The reaction was assembled on ice and allowed to incubate at 37° C. for 1-2 hr. The resulting mRNA was precipitated (reaction termination) using lithium chloride/5 mM EDTA solution and dissolved in RNase-free H2O. The concentration (OD260) and OD260/OD280 ratio (should be more than 1.5) was determined by spectrophotometer. The yield of mRNA was generally 15-30 μg. mRNA was stored at −80° C. until use.
(§3) Intracellular recording microelectrodes were fabricated from 100 μl borosilicate glass disposable micropipettes using a 2-step protocol on a standard horizontal Flaming-Brown micropipette puller.

[1] = biological target: T1, NR1011/NR2B-D Chimera(II) (Rattus norvegicus, UniProt P35439+Q00960+Q62645, A556P/A573T/A605S/A700P/A704S/A794R/A827V/A830G/C588S/C838W/D557A/D591T/D676E/D715E/D716E/D769G/E594R/E701D/E791M/E804D/F554Y/F580L/F677Q/F681L/F709Y/F784L/F842V/F846L/G611A/G707V/G713R/G741R/G771R/G787D/G826L/I530V/I568T/I766L/I780L/I834L/I837A/K624R/K669R/K708R/L566C/L719T/L783F/M789I/N675Q/N697S/N806I/P598S/Q621E/Q662T/Q767H/Q775P/Q812K/Q845R/R593K/R682K/R693K/R712P/R742K/S539A/S570V/S599T/S633L/S678Y/S720Q/S759T/T723A/T798S/T835V/V576I/V776I); assay: NR2 chimera study, Xenopus oocytes, Example 7; type: cell-based; settings: 100 μM PS; 300 μM NMDA; 50 μM Glycine
T1 construct: expressed in transfected cells; host or cells: Xenopus oocytes
From the text: (§4) To produce the first subunit, 96% of the cytoplasmic COOH-terminal region of the NR2B subunit (residues 870 to 1482) were replaced with the corresponding region of the NR2D subunit (residues 892 to 1323).
(§5) The chimeric receptors were generated by first introducing a series of silent restriction sites in both the NR2B and NR2D cDNA. The chimeric cDNAs were then constructed by replacing corresponding regions of one cDNA with that of the other. The silence site mutations were generated by a method involving PCR. […] This cassette was then ligated into the cDNA cut with the same two restriction enzymes.

NR1011/NR2B-D Chimera(I) = biological target: T2, NR1011/NR2B-D Chimera(I) (Rattus norvegicus, UniProt P35439+Q00960+Q62645); assay: NR2 chimera study, Xenopus oocytes, Example 7; type: cell-based; settings: 100 μM PS; 300 μM NMDA; 50 μM Glycine
T2 construct: expressed in transfected cells; host or cells: Xenopus oocytes
From the text: as §4, §5

[2] = biological target: T3, NR1011/NR2B-D Chimera (III) (Rattus norvegicus, UniProt P35439+Q00960, A556P/A573T/A605S/A700P/A704S/A794R/A827V/A830G/C588S/C838W/D557A/D591T/D676E/D715E/D716E/D769G/DEL851-864/E594R/E701D/E791M/E804D/F554Y/F580L/F677Q/F681L/F709Y/F784L/F842V/F846L/G611A/G707V/G713R/G741R/G771R/G787D/G826L/I530V/I568T/I766L/I780L/I834L/I837A/I868M/INS849[…]/K624R/K669R/K708R/L566C/L719T/L783F/M789I/N675Q/N697S/N806I/P598S/Q621E/Q662T/Q767H/Q775P/Q812K/Q845R/R593K/R682K/R693K/R712P/R742K/S539A/S570V/S599T/S633L/S678Y/S720Q/S759T/T723A/T798S/T835V/V576I/V776I); assay: NR2 chimera study, Xenopus oocytes, Example 7; type: cell-based; settings: 100 μM PS; 300 μM NMDA; 50 μM Glycine
T3 construct: expressed in transfected cells; host or cells: Xenopus oocytes
From the text: as §4, §5

NR1100/NR2A = assay: NMDA-induced currents of NR1 splice variants, Xenopus oocytes, Example 4; type: cell-based; settings: 100 μM PS
Experimental: as §1, §2, §3

NR1001/NR2B = biological target: T4, NR1001/NR2B (Rattus norvegicus, UniProt P35439+Q00960); assay: NMDA receptor currents in Ba-Ringer, Xenopus oocytes, Example 3; type: cell-based
T4 construct: expressed in transfected cells; host or cells: Xenopus oocytes

NR1001/NR2A = NR1001/NR2A (Rattus norvegicus, UniProt P35439+Q00959); assay: NMDA-induced currents of NR1 splice variants, Xenopus oocytes, Example 4; type: cell-based; parameters: expressed in transfected cells; host or cells: Xenopus oocytes injected with NR1001 and NR2A mRNA; settings: NR1001/2A; 100 μM PS; 200 μM NMDA+10 μM glycine
Experimental: as §1, §2, §3

NR1/NR2B = biological target: T5, NR1/NR2B (Rattus norvegicus, UniProt P35439+Q00960); assay: NMDA-induced membrane currents, Xenopus oocytes, Example 7; type: cell-based
T5 construct: expressed in transfected cells; host or cells: Xenopus oocytes injected with mRNA
Experimental: Plasmids were linearized with appropriate restriction enzyme prior to in vitro transcription using the Message Machine kit (Ambion, Inc., Austin, Tex.).
Oocytes were injected with 50 nL of RNA solutions using an electronic microinjector (Drummond Inc., Broomall, Pa.). […] The injected oocytes were used for experiments following 1-5 days of incubation in Barth's solution at 18-20° C.
The microelectrodes were fabricated with a programmed puller (Sutter Instrument Co., Calif.) from borosilicate glass capillaries and were filled with 3 M KCl solution. The resistance of filled microelectrodes was in the range of 1-3 MΩ. […] If not mentioned otherwise, during data acquisition oocytes were clamped at a holding potential of −70 mV. The membrane current was filtered at 500 Hz and sampled at 100 Hz. Drugs were applied using a gravity driven external perfusion system. The working ,volume of the recording chamber was 30 μl and the rate of the perfusion was 50 μl/sec. The drug application lasted 10 sec and was followed by a 60 sec wash. The data acquisition and external perfusion control were done using the SuperScopeII software package (GW Instruments, Mass.). […] Peak or steady-state current measurements were normalized and expressed as a fraction of the peak or steady-state control current measurements, which were performed before and after application of every single consentration of agonist or steroid. […]

NR1111/NR2B = biological target: T6, NR1111/NR2B (Rattus norvegicus, UniProt P35439+Q00960); assay: NMDA receptor currents in Ba-Ringer, Xenopus oocytes, Example 3; type: cell-based
T6 construct: expressed in transfected cells; host or cells: Xenopus oocytes

[3] = test system: NMDA receptor (chick spinal cord neurons); settings: Park-Chung et al. 1997; cited from earlier work
NR1/NR2D (NR1100) = NR1/NR2D (NR1100) (Rattus norvegicus, UniProt P35439+Q62645); assay: cell-based
From the text: Plasmids containing the NR1100 (NR1G) and NR2A cDNA inserts were kindly provided by Dr. Nakanishi (Kyoto University Faculty of Medicine, Kyoto, Japan). Plasmids containing the NR2B, NR2C and NR2D cDNA inserts were kindly provided by Dr. P. Seeburg (Heidelberg University, Heidelberg, Germany). Plasmids were linearized with appropriate restriction enzyme prior to in vitro transcription using the Message Machine kit (Ambion, Inc., Austin, Tex.).
Female, oocyte-positive Xenopus laevis frogs were purchased from Xenopus I (Dexter, Mich.). […] Oocytes were injected with 50 nL of RNA solutions using an electronic microinjector (Drummond Inc., Broomall, Pa.). […] The injected oocytes were used for experiments following 1-5 days of incubation in Barth's solution at 18-20° C.
The microelectrodes were fabricated from borosilicate glass capillaries with a programmed puller (Sutter Instrument Co., Calif.). Microelectrode resistance was 1-3 MΩ_when filled with 3 M KCl.
Except where otherwise stated, oocytes were clamped at a holding potential of −70 mV during data acquisition. The membrane current was filtered at 500 Hz and sampled at 100 Hz. Drugs were applied using a gravity-driven external perfusion system. The working volume of the recording chamber was 30 μl and the rate of the perfusion was 50 μl/sec. The drug application lasted 10 sec and was followed by 60 s wash. Data acquisition and external perfusion were controlled using custom-written software implemented in the SuperScope II development environment (GW Instruments, Mass.). All experiments were performed at room temperature of 22-24° C. Peak or steady-state current measurements were normalized and expressed as a fraction of the peak or steady-state control current measurements, which were performed before and after application of every single concentration of agonists or steroids.
Concentration-response data were analyzed by nonlinear regress ion using the logistic equation Response=Emax/(1+(EC50/c)^nH), where c is concentration, Emaxis the maximum response, nHis the Hill coefficient. The data are presented as mean±SEM. EC50values are averaged as logarithms (De Lean et al., Am. J. Physiol. 235: E97-E102 (1978))±the SEM of the log EC50. […] The pooled data were simultaneously fitted to the logistic equation, either with Emax and EC50 constrained to be identical in the presence and absence of PS, or allowing one or both to vary independently. […] This was regarded as indicating a significant treatment effect of PS, but the change in EC50and Emaxwas not considered significant. […] No attempt was made to test the generally small changes in nHfor statistical significance.

T5 sequence (Q00960 27-1482, other chains not shown): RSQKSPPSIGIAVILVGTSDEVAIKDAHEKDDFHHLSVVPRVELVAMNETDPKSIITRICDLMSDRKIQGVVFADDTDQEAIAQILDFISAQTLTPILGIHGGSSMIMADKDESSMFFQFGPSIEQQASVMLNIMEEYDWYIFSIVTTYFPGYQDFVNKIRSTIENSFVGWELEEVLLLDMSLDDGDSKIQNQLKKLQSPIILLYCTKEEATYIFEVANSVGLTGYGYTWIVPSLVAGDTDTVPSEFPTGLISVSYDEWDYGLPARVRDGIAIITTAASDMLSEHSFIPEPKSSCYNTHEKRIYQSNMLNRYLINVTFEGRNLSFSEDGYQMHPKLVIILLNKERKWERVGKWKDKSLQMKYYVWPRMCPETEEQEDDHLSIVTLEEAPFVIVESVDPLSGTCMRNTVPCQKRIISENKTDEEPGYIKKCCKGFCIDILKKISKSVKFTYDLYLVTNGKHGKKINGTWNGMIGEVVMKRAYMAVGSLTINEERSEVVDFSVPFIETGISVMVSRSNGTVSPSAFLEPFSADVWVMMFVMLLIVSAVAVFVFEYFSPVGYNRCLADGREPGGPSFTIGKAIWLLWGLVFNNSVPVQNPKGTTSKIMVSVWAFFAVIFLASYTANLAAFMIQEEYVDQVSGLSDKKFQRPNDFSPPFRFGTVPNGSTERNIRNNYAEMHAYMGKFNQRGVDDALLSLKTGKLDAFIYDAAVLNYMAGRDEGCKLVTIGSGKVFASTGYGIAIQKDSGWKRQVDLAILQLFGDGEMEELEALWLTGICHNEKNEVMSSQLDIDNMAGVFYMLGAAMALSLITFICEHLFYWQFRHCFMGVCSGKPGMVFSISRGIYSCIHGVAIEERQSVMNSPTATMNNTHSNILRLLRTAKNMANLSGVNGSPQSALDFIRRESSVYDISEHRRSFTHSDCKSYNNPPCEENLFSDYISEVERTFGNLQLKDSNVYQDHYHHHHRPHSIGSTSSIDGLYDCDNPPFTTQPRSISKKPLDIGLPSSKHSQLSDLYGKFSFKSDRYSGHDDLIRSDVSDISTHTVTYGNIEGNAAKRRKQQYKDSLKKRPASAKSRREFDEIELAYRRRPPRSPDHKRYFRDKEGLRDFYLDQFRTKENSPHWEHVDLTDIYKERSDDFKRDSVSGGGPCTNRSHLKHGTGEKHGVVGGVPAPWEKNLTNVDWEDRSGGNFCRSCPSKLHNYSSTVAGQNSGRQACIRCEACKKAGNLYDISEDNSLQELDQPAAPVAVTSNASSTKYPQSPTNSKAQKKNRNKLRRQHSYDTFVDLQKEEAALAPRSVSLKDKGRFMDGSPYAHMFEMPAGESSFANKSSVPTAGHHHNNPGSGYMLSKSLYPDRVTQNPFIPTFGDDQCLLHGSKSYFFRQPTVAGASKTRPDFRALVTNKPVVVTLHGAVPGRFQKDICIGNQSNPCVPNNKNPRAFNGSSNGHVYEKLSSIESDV
T6 sequence (Q00960 27-1482, other chains not shown): as above
T4 sequence (Q00960 27-1482, other chains not shown): as above

pregnenolone sulfate [PS]
maximum relative current (MRC) (NR1000/NR2A): 1.29
inhibition of inward current [1]: 43.04±5.44%
potentiation of inward current (NR1011/NR2B-D Chimera(I)): 52.69±3.58%
inhibition of inward current [2]: 36.74±6.54%
difference in mrc between NR1000/NR2A and NR1100/NR2A (NR1100/NR2A): 1.3 fold
PS Emax (NR1001/NR2B): 0.63 ± 0.07
PS nHill (NR1001/NR2B): 1.34 ± 0.17
maximum relative current (MRC) (NR1001/NR2A): 1.73 and 1.72
potentiation of membrane current (NR1/NR2B; 100 μM PS, […] μM NMDA, 10 μM glycine): 95±6%
maximum potentiation (NR1/NR2B; PS 0.5 to 200 μM): 119±9%
PS Emax (NR1111/NR2B): 1.20 ± 0.10
PS nHill (NR1111/NR2B): 1.52 ± 0.10

CC(=O)[C@H]1CC[C@H]2[C@@H]3CC[C@@H]4C[C@H](OS(=O)(=O)O)CC[C@]4(C)[C@H]3CC[C@]12C [3α5βS, 3α5β-pregnanolone sulfate]
modulation of NMDA-induced current [3]: strong inhibitors
EC50 (NR1/NR2D (NR1100)): 14 µM
Emax (NR1/NR2D (NR1100); read-out: 3α5βS Emax (% Change)): -98 ± 7%
